Experimental data: article PMC10840383, “Clinical features, functional consequences, and rescue pharmacology of missense GRID1 and GRID2 human variants” (Human Molecular Genetics, 2023)

How the values were obtained:
GluD2-WT = target: T1, GluD2-WT (Rattus norvegicus, UniProt Q63226); test: TEVC of constitutive current, Xenopus oocytes expressing GluD2-WT; format: cell-based
T1 construct: expressed in transfected cells; host or cells: Xenopus laevis oocytes injected with cRNA
T1 sequence (Q63226 24-1007): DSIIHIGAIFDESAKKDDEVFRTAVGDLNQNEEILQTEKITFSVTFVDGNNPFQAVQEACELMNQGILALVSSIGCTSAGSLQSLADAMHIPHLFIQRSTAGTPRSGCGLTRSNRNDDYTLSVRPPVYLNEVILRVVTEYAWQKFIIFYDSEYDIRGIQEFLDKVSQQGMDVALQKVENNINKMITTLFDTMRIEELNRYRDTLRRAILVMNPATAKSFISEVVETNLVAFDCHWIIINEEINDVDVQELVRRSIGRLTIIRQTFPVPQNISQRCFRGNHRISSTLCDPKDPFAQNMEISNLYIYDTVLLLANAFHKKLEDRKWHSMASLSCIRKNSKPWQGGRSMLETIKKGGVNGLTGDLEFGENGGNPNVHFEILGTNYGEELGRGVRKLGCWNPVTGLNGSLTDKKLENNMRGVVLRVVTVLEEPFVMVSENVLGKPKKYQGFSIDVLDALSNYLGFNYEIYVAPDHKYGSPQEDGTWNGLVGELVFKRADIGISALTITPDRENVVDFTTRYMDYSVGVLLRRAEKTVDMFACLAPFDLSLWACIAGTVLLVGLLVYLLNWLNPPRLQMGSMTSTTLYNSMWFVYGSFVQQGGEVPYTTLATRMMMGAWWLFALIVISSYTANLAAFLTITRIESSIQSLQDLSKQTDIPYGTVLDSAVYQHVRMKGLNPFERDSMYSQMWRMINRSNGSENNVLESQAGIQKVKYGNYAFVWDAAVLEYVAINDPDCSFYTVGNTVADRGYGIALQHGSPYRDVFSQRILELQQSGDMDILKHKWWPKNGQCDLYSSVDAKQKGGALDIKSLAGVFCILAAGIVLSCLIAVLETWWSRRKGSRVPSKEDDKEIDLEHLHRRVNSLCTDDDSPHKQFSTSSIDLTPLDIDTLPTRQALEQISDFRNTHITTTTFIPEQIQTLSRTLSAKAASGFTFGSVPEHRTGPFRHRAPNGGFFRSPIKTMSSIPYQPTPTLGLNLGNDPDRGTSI

GluD2-A654T receptor = target: GluD2-A654T receptor; set-up: method as in PMID 12606689; settings: read-out: Pentamidine IC50; cited from earlier work

SMILES	Effect on difference current, in words (GluD2-WT; 10 mM D-serine)	D-Serine effect (Baseline −10 mM D-Serine) (GluD2-WT; 10 mM D-serine, positive = increase, negative = decrease of activity)	Pentamidine effect (Baseline −100 μM Pentamidine) (GluD2-WT; 100 μM pentamidine, positive = increase, negative = decrease of activity)	IC50 (GluD2-A654T receptor)
N[C@H](CO)C(=O)O [D-serine]	minimal activity	−3.6 ± 1.0 (14) nA	–	–
N=C(N)c1ccc(OCCCCCOc2ccc(C(=N)N)cc2)cc1 [Pentamidine, pentamidine]	–	–	3.6 ± 4.8 (14) nA	11 µM
